Assay results from the supplement of paper PMC10307832.

How the values were obtained:
Experiment in all cases: relative viability (nuclei count vs DMSO), 5 days (fraction); higher = more cells survive
[1] = compound: CC1=CC=C(C=C1)C(=O)CN2C3=C(CCCC3)SC2=N [Pifithrin_alpha] + COc1cccc2cc(-c3nc([C@H]4CC[C@H](C(=O)O)CC4)n4ncnc(N)c34)[nH]c12 [OSI-027] (partner 0.5 µM)
Method in brief: (§1)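 Relative viability equals treated-well nuclei counts divided by vehicle-well nuclei counts. Counts came from 4× images of lung cancer cell lines grown in 1536-well plates for 5 days after pin-tool dosing on the day after seeding. Dosing used one drug alone or a fixed anchor-drug dose plus five library-drug doses (not always all listed) in √10 steps, and values are medians of duplicate plates.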

Axitinib + Navitoclax = compound: CNC(=O)c1ccccc1Sc1ccc2c(/C=C/c3ccccn3)n[nH]c2c1 [Axitinib] + CC1(C)CCC(c2ccc(Cl)cc2)=C(CN2CCN(c3ccc(C(=O)NS(=O)(=O)c4ccc(N[C@H](CCN5CCOCC5)CSc5ccccc5)c(S(=O)(=O)C(F)(F)F)c4)cc3)CC2)C1 [Navitoclax] (partner 0.5 µM)
Method in brief: as §1

[2] = compound: CC1=CC=C(C=C1)C(=O)CN2C3=C(CCCC3)SC2=N [Pifithrin_alpha] + Nc1ncn([C@H]2C[C@H](O)[C@@H](CO)O2)c(=O)n1 [Decitabine] (partner 2 µM)
Method in brief: as §1

Axitinib + AZD7762 = compound: CNC(=O)c1ccccc1Sc1ccc2c(/C=C/c3ccccn3)n[nH]c2c1 [Axitinib] + NC(=O)Nc1cc(-c2cccc(F)c2)sc1C(=O)N[C@H]1CCCNC1 [AZD7762] (partner 0.2 µM)
Method in brief: as §1

| Cell Line | relative viability ([1]; first compound 1 µM) | relative viability ([1]; first compound 3.162 µM) | relative viability ([1]; first compound 10 µM) | relative viability ([1]; first compound 31.62 µM) | relative viability ([1]; first compound 100 µM) | relative viability (Axitinib + Navitoclax; first compound 0.005 µM) | relative viability (Axitinib + Navitoclax; first compound 0.01581 µM) | relative viability (Axitinib + Navitoclax; first compound 0.05 µM) | relative viability (Axitinib + Navitoclax; first compound 0.1581 µM) | relative viability (Axitinib + Navitoclax; first compound 0.5 µM) | relative viability ([2]; first compound 3.162 µM) | relative viability ([2]; first compound 31.62 µM) | relative viability ([2]; first compound 100 µM) | relative viability (Axitinib + AZD7762; first compound 0.005 µM) | relative viability (Axitinib + AZD7762; first compound 0.01581 µM) | relative viability (Axitinib + AZD7762; first compound 0.05 µM) | relative viability (Axitinib + AZD7762; first compound 0.1581 µM) | relative viability (Axitinib + AZD7762; first compound 0.5 µM) | relative viability ([2]; first compound 1 µM) | relative viability ([2]; first compound 10 µM) |
| --- | --- | --- | --- | --- | --- | --- | --- | --- | --- | --- | --- | --- | --- | --- | --- | --- | --- | --- | --- | --- |
| NCI-H1563 | 0.776 | 0.81 | 0.76 | 0.704 | 0.716 |  |  |  |  |  |  |  |  |  |  |  |  |  |  |  |
| EMC-BAC-2 | 0.329 | 0.386 | 0.358 |  | 0.353 | 1.27 | 1.12 | 1.16 | 1.16 | 1.27 | 0.95 | 0.84 | 0.972 | 1.07 | 1.1 | 1.06 | 1.1 | 1.11 |  |  |
| NCI-H596 | 0.809 | 0.65 | 0.557 | 0.588 | 0.621 | 0.979 | 0.859 | 1.04 | 0.847 | 0.969 | 1.15 | 1.07 | 1.09 | 1.14 | 0.978 | 1.12 | 1.12 | 0.943 | 0.89 | 1.12 |
| NCI-H2009 | 0.601 | 0.663 | 0.62 | 0.431 | 0.456 | 1.19 | 1.19 | 1.17 | 1.18 | 1.23 | 0.349 | 0.344 | 0.409 |  |  |  |  |  | 0.361 | 0.404 |
| HOP-62 | 0.836 | 0.811 | 0.955 | 0.635 | 0.921 | 1.07 | 1.06 | 1.02 | 1.06 | 1.12 | 0.167 | 0.218 | 0.263 | 0.654 | 0.548 | 0.592 | 0.728 | 0.97 | 0.233 | 0.232 |
| NCI-H2126 |  | 0.671 | 0.594 | 0.658 | 0.563 | 0.81 | 0.877 | 0.824 | 0.841 | 0.765 | 0.594 | 0.49 | 0.548 | 0.936 | 0.997 | 0.996 | 0.97 | 1.01 | 0.518 | 0.576 |
| HCC-15 | 0.503 | 0.61 | 0.611 | 0.376 | 0.485 | 0.763 | 0.699 | 0.727 | 0.706 | 0.78 | 0.738 | 0.531 | 0.456 | 1.36 | 1.13 | 1.35 | 1.14 | 1.18 | 0.657 | 0.573 |
| NCI-H23 | 0.627 | 0.535 | 0.446 |  | 0.535 | 0.907 | 0.947 | 0.856 | 0.87 | 0.893 | 0.316 | 0.283 | 0.337 | 0.328 | 0.216 | 0.23 | 0.241 | 0.288 | 0.317 | 0.317 |
| LCLC-97TM1 | 0.706 | 0.689 | 0.631 | 0.252 | 0.6 | 0.485 | 0.506 | 0.475 | 0.489 | 0.534 | 0.272 |  | 0.121 | 0.22 | 0.327 | 0.218 | 0.281 | 0.374 |  | 0.235 |
| SW 1573 | 0.662 | 0.601 | 0.572 | 0.422 | 0.76 | 0.914 | 1.03 | 1.05 | 0.852 | 0.904 | 0.449 |  | 0.587 |  |  |  |  |  | 0.516 | 0.509 |
| EKVX | 0.668 |  | 0.569 | 0.734 | 0.604 | 1.07 | 0.962 | 0.823 | 0.921 | 0.961 | 0.553 | 0.32 | 0.368 | 0.782 | 0.617 | 0.883 | 0.636 | 0.644 | 0.343 | 0.319 |
| HCC-44 | 0.39 | 0.391 | 0.481 | 0.324 | 0.268 | 1.04 | 1.06 | 0.99 | 0.939 | 1.12 | 0.919 | 0.779 | 0.857 | 1.07 | 1.04 | 1.01 | 0.992 | 1.03 | 0.859 | 0.812 |
| NCI-H1651 | 0.682 | 0.664 | 0.666 | 0.449 | 0.6 | 1.07 | 0.984 | 1.06 | 1.1 | 1.15 | 0.642 | 0.537 | 0.635 | 0.466 | 0.416 | 0.481 | 0.467 | 0.533 | 0.166 | 0.569 |
| COR-L23 | 0.843 | 0.822 | 0.616 |  | 0.613 | 0.948 | 0.983 | 1.15 | 1.07 | 1.15 | 0.399 |  | 0.328 |  |  |  |  |  | 0.412 | 0.404 |
| NCI-H1299 |  |  |  |  |  | 1.14 | 1.04 | 1.07 | 1.04 | 1.07 |  |  |  |  |  |  |  |  |  |  |
| NCI-H1734 | 0.58 | 0.633 | 0.585 | 0.482 | 0.491 | 0.903 | 0.839 | 0.843 | 0.861 | 0.971 | 0.463 | 0.441 | 0.556 | 0.64 | 0.573 | 0.56 | 0.579 | 0.668 | 0.497 | 0.502 |
| NCI-H1793 |  | 0.249 | 0.201 | 0.218 | 0.198 | 0.438 | 0.386 | 0.424 | 0.514 | 0.504 | 0.464 | 0.323 | 0.454 | 0.514 | 0.394 | 0.565 | 0.304 | 0.486 | 0.442 | 0.489 |
| NCI-H522 | 0.439 | 0.624 | 0.668 | 0.761 | 0.777 |  |  |  |  |  | 0.722 | 0.673 | 0.579 | 0.754 | 0.924 | 0.787 | 0.9 | 0.794 | 0.681 | 0.693 |
| LU99A | 0.266 | 0.27 | 0.273 | 0.23 | 0.281 | 0.858 | 0.805 | 0.83 | 0.773 | 0.902 | 0.919 |  | 0.863 | 0.433 | 0.451 | 0.397 | 0.39 | 0.415 | 0.834 | 1.04 |
